Measured values reported in PMC5321639, “Design and pharmacodynamics of recombinant NZ2114 histidine mutants with improved activity against methicillin-resistant Staphylococcus aureus” (AMB Express, 2017).
In brackets after ≈: the same amount, converted by molar mass. Several values for one entry are separate records, joined by “and”; a condition that tells them apart may be missing. Identical values can stand only once. Where a SMILES comes first, the peptide text is derived from it. Bridges are numbered along the chain shown (N, C = ends).

Experiments:
S. aureus ATCC25923 = test: MIC assay; assay type: cell-based, Staphylococcus aureus; settings: MHB, 1 × 10^5 CFU/ml, 37 °C, 18–24 h, no visible growth, triplicate
Description: (§1) The peptide solutions were diluted twofold with the range of final concentrations were 0.015–32 µg/ml (0.003–7.273 µM) for purified H1, H2, H3, H6, and H8. The test strains were grown in MHB medium at 37 °C to an OD600 of 0.4 and diluted to 1 × 10^5 CFU/ml. The 10 µl peptide and 90 µl cell suspension were added into each well. All assays were performed in triplicate. The antimicrobial activity of NZ2114 and vancomycin were tested as positive controls. The plates were incubated at 37 °C for 18–24 h. MIC was defined as the lowest peptide concentration of ones at which there was no visible growth (Tian et al. [2009]).

S. aureus ATCC6538 = test: MIC assay; assay type: cell-based, Staphylococcus aureus; settings: MHB, 1 × 10^5 CFU/ml, 37 °C, 18–24 h, no visible growth, triplicate
Description: as §1

S. suis CVCC3309 = test: MIC assay; assay type: cell-based, Streptococcus suis; settings: MHB, 1 × 10^5 CFU/ml, 37 °C, 18–24 h, triplicate
Description: as §1

S. suis CVCC3928 = test: MIC assay; assay type: cell-based, Streptococcus suis; settings: MHB, 1 × 10^5 CFU/ml, 37 °C, 18–24 h, triplicate
Description: as §1

S. suis CVCC606 = test: MIC assay; assay type: cell-based, Streptococcus suis; settings: MHB, 1 × 10^5 CFU/ml, 37 °C, 18–24 h, triplicate
Description: as §1

S. pneumoniae CVCC1.8722 = test: MIC assay; assay type: cell-based, Streptococcus pneumoniae; settings: MHB, 1 × 10^5 CFU/ml, 37 °C, 18–24 h, triplicate
Description: as §1

S. pneumoniae CVCC2350 = test: MIC assay; assay type: cell-based, Streptococcus pneumoniae; settings: MHB, 1 × 10^5 CFU/ml, 37 °C, 18–24 h, triplicate
Description: as §1

S. enteritidis CMCC50336 = test: MIC assay; assay type: cell-based, Salmonella enteritidis; settings: MHB, 1 × 10^5 CFU/ml, 37 °C, 18–24 h, triplicate
Description: as §1

S. choleraesuis CVCC503 = test: MIC assay; assay type: cell-based; settings: MHB, 1 × 10^5 CFU/ml, 37 °C, 18–24 h, triplicate
Description: as §1

S. pullorum CVCC1789 = test: MIC assay; assay type: cell-based; settings: MHB, 1 × 10^5 CFU/ml, 37 °C, 18–24 h, triplicate
Description: as §1

S. typhimurium ATCC14028 = test: MIC assay; assay type: cell-based; settings: MHB, 1 × 10^5 CFU/ml, 37 °C, 18–24 h, triplicate
Description: as §1

E. coli CICC21530 = test: MIC assay; assay type: cell-based, Escherichia coli; settings: MHB, 1 × 10^5 CFU/ml, 37 °C, 18–24 h, triplicate
Description: as §1

E. coli CVCC195 = test: MIC assay; assay type: cell-based, Escherichia coli; settings: MHB, 1 × 10^5 CFU/ml, 37 °C, 18–24 h, triplicate
Description: as §1

[1] = test system: S. aureus ATCC43300 (MRSA); test: Time-kill curve assay; assay type: cell-based, Staphylococcus aureus; settings: for time for bacterial counts to decrease to 2 log10 CFU/ml (a 99.9% reduction): start 1 × 10^5 CFU/ml, 37 °C, triplicate
Description: Bacterial culture (S. aureus ATCC43300) was diluted to 1 × 10^5 CFU/ml and H1, H2, and H3 were added. […] The mixture was cultivated at 250 rpm, 37 °C. The 100-µl samples were taken from each flask at 0, 2, 4, 6, 8, 12 and 24 h of incubation, and serial dilutions of samples were plated to count visible colonies. Vancomycin was tested in the same way as a positive control and the culture without antimicrobial agent as a negative control (Xiong et al. [2011]). All experiments were performed in triplicate.

S. aureus ATCC43300 [2] = test: Postantibiotic effect (PAE); assay type: cell-based, Staphylococcus aureus; settings: 2 h exposure at 37 °C, 1 × 10^8 CFU/ml, drug removed by 1:10^3 dilution, mean ± SD, n = 3
Description: After 2 h, the drug was removed by diluting 1:10^3 into the MHB and incubated at 37 °C, 250 rpm. The sample was taken to plate counting every 1 h until the bacterial cultures become turbid. The PAE was calculated by the following formula: PAE = T − C, where T is the time needed for the count of CFU in the test culture to increase 1 log10 (10-fold) above the 0 h and C is the time needed for the count of CFU in the untreated control culture to increase 1 log10 above the 0 h (Giguère et al. [2012]).

S. aureus ATCC43300 [3] = test: Effect of pH on activity (MIC); assay type: cell-based, Staphylococcus aureus; settings: then MIC assay
Description: as §1
(§2) The effect of pH, temperature, NaCl concentration and proteinase on the activity of peptides was evaluated. Peptides were diluted twofold, then adjusted to a pH range from 2.0 to 10.0 and incubated at 37 °C for 4 h. The thermal stability of purified peptides was determined after 1-h incubation of peptides at 4, 20, 40, 60, 80 and 100 °C in deionized water, respectively. Aliquots of peptides were incubated in various proteinases solutions [pepsin (pH 2.0), trypsin (pH 8.0), proteinase K (pH 7.0)] at a ratio of 1:10, w/w (proteinase: peptide) at 37 °C for 3 h. For the ion stability, peptides were incubated in 50, 100, 200, 300, 400, 500 mM sodium chloride solutions, respectively. Other methods and conditions were prepared as the MIC assay described above (Li et al. [2015]; Qu et al. [2016]).

S. aureus ATCC43300 [4] = test: Effect of temperature on activity (MIC); assay type: cell-based, Staphylococcus aureus; settings: then MIC assay
Description: as §1, §2

S. aureus ATCC43300 [5] = test: Effect of NaCl concentration on activity (MIC); assay type: cell-based, Staphylococcus aureus
Description: as §1, §2

S. aureus ATCC43300 [6] = test: Effect of proteinases on activity (MIC); assay type: cell-based, Staphylococcus aureus; settings: trypsin (pH 8.0), 1:10 w/w proteinase:peptide, 37 °C for 3 h, then MIC assay
Description: as §1, §2

CC[C@H](C)[C@@H]1NC(=O)[C@H](CO)NC(=O)[C@H](CCCCN)NC(=O)[C@@H]2CSSC[C@@H](C(=O)N[C@@H](Cc3ccc(O)cc3)C(=O)O)NC(=O)[C@H](CCCCN)NC(=O)[C@@H]3CSSC[C@H](NC(=O)[C@H](CCCNC(=N)N)NC(=O)[C@H](CC(C)C)NC(=O)[C@H](CC(=O)O)NC(=O)[C@H](CC(=O)O)NC(=O)[C@H](CCC(=O)O)NC(=O)[C@H](CC(N)=O)NC(=O)[C@H](Cc4c[nH]c5ccccc45)NC(=O)[C@@H]4CCCN4C(=O)CNC(=O)[C@H](CC(N)=O)NC(=O)[C@@H](NC(=O)CNC(=O)[C@H](Cc4ccccc4)NC(=O)CN)CSSC[C@H](NC(=O)[C@H](Cc4ccc(O)cc4)NC(=O)CNC(=O)CNC(=O)[C@H](CCCCN)NC(=O)[C@H](Cc4ccc(O)cc4)NC(=O)CNC(=O)[C@H](CCCCN)NC1=O)C(=O)N[C@@H](C)C(=O)N[C@@H](CCCCN)C(=O)NCC(=O)NCC(=O)N[C@@H](Cc1ccccc1)C(=O)N[C@@H](C(C)C)C(=O)N3)C(=O)N[C@@H](CCCNC(=N)N)C(=O)N[C@@H](CC(N)=O)C(=O)N[C@@H](Cc1c[nH]cn1)C(=O)N2 [H2] (H-GFGCNGPWNEDDLRCRNHCKSIKGYKGGYCAKGGFVCKCY-OH; disulfide 4-30, 15-37, 19-39 (inferred); N-terminus and C-terminus assumed)
MIC (S. aureus ATCC25923): 0.028 µM (≈ 0.124 µg/mL) | MIC (S. aureus ATCC6538): 0.057 µM (≈ 0.253 µg/mL) | MIC (S. suis CVCC3309): 0.028 µM (≈ 0.124 µg/mL) | MIC (S. suis CVCC3928): 0.014 µM (≈ 0.062 µg/mL) | MIC (S. suis CVCC606): 0.028 µM (≈ 0.124 µg/mL) | MIC (S. pneumoniae CVCC1.8722): 0.227 µM (≈ 1.01 µg/mL) | MIC (S. pneumoniae CVCC2350): 0.227 µM (≈ 1.01 µg/mL) | MIC (S. enteritidis CMCC50336): >7.273 µM | MIC (S. choleraesuis CVCC503): >7.273 µM | MIC (S. pullorum CVCC1789): >7.273 µM | MIC (S. typhimurium ATCC14028): >7.273 µM | MIC (E. coli CICC21530): >7.273 µM | MIC (E. coli CVCC195): >7.273 µM | time for bacterial counts to decrease to 2 log10 CFU/ml (a 99.9% reduction) ([1]; 1× MIC): 1.5 h | regrowth of pathogens up to 24 h ([1]; 1×, 2× and 4× MIC, maintained to 24 h): without regrowth | time for bacterial counts to decrease to 2 log10 CFU/ml (a 99.9% reduction) ([1]; 2× MIC): 1 h | time for bacterial counts to decrease to 2 log10 CFU/ml (a 99.9% reduction) ([1]; 4× MIC): 0.5 h | PAE (S. aureus ATCC43300 [2]; 1× MIC): 0.63 h and 0.63 ± 0.13 h | PAE (S. aureus ATCC43300 [2]; 2× MIC): 1.75 ± 0.04 h | MIC after incubation at pH2 (S. aureus ATCC43300 [3]; pH 2, 37 °C for 4 h): 0.114 μM | MIC after incubation at pH4 (S. aureus ATCC43300 [3]; pH 4, 37 °C for 4 h): 0.114 μM | MIC after incubation at pH6 (S. aureus ATCC43300 [3]; pH 6, 37 °C for 4 h): 0.114 μM | MIC after incubation at pH8 (S. aureus ATCC43300 [3]; pH 8, 37 °C for 4 h): 0.114 μM | MIC after incubation at pH10 (S. aureus ATCC43300 [3]; pH 10, 37 °C for 4 h): 0.114 μM | MIC after incubation at 4 °C (S. aureus ATCC43300 [4]; 1 h at 4 °C in deionized water): 0.114 µM (≈ 0.505 µg/mL) | MIC after incubation at 20 °C (S. aureus ATCC43300 [4]; 1 h at 20 °C in deionized water): 0.114 µM (≈ 0.505 µg/mL) | MIC after incubation at 40 °C (S. aureus ATCC43300 [4]; 1 h at 40 °C in deionized water): 0.114 µM (≈ 0.505 µg/mL) | MIC after incubation at 60 °C (S. aureus ATCC43300 [4]; 1 h at 60 °C in deionized water): 0.114 µM (≈ 0.505 µg/mL) | MIC in 50 mM NaCl (S. aureus ATCC43300 [5]; incubated in 50 mM sodium chloride solution): 0.114 µM (≈ 0.505 µg/mL) | MIC in 100 mM NaCl (S. aureus ATCC43300 [5]; incubated in 100 mM sodium chloride solution): 0.114 µM (≈ 0.505 µg/mL) | MIC in 300 mM NaCl (S. aureus ATCC43300 [5]; incubated in 300 mM sodium chloride solution): 0.227 µM (≈ 1.01 µg/mL) | MIC in 400 mM NaCl (S. aureus ATCC43300 [5]; incubated in 400 mM sodium chloride solution): 0.227 µM (≈ 1.01 µg/mL) | MIC in 500 mM NaCl (S. aureus ATCC43300 [5]; incubated in 500 mM sodium chloride solution): 0.227 µM (≈ 1.01 µg/mL) | MIC after Trypsin (S. aureus ATCC43300 [6]): 0.454 µM (≈ 2.01 µg/mL)
